According to PubChem BioAssay (NCI):
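These data come from cells grown in 96-well plates and exposed to compound for 48 hours at five concentrations. TGI is the concentration that stops growth completely.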

How the values were obtained:
Assay in all cases: DTP human tumour cell line panel, 48 h
[1] = system: SK-MEL-2 melanoma
[2] = system: OVCAR-4 ovarian
[3] = system: HOP-62 NSCLC
[4] = system: U251 CNS
[5] = system: HS 578T breast
[6] = system: NCI-H460 lung
[7] = system: COLO 205 colon
[8] = system: HCT-15 colon
[9] = system: NCI-H226 lung
[10] = system: EKVX NSCLC
[11] = system: SW-620 colon
[12] = system: RXF 393 renal
[13] = system: SK-OV-3 ovarian
[14] = system: DU-145 prostate
[15] = system: SF-539 CNS
[16] = system: BT-549 breast
[17] = system: PC-3 prostate
[18] = system: HCT-116 colon
[19] = system: NCI-H522 lung
[20] = system: SNB-75 CNS
[21] = system: UACC-257 melanoma
[22] = system: NCI-H23 lung
[23] = system: 786-0 renal
[24] = system: MALME-3M melanoma
[25] = system: SR leukemia
[26] = system: SNB-19 CNS
[27] = system: ACHN renal
[28] = system: NCI/ADR-RES ovarian
[29] = system: MDA-MB-231 breast
[30] = system: KM12 colon
[31] = system: K-562 leukemia
[32] = system: A549 NSCLC
[33] = system: CCRF-CEM leukemia
[34] = system: SF-295 CNS
[35] = system: MOLT-4 leukemia
[36] = system: OVCAR-3 ovarian
[37] = system: TK-10 renal
[38] = system: M14 melanoma
[39] = system: OVCAR-5 ovarian
[40] = system: T-47D breast
[41] = system: SF-268 CNS
[42] = system: UO-31 renal
[43] = system: SK-MEL-5 melanoma
[44] = system: MCF7 breast
[45] = system: HT29 colon
[46] = system: MDA-MB-435
[47] = system: OVCAR-8 ovarian
[48] = system: LOX IMVI melanoma
[49] = system: SK-MEL-28 melanoma
[50] = system: HL-60(TB) leukemia
[51] = system: UACC-62 melanoma
[52] = system: MDA-N
[53] = system: SN12C renal
[54] = system: HOP-92 NSCLC
[55] = system: HCC-2998 colon

## CC(=O)Nc1ccc(N2C(=O)CS(=O)(=O)C2c2cccc(Oc3ccccc3)c2)cc1 (stereo not drawn)
[1]
  TGI: 37.3 µM
[2]
  TGI: 38.9 µM
[3]
  TGI: 38.9 µM
[4]
  TGI: 32.6 µM
[5]
  TGI: 79.9 µM
[6]
  TGI: 34.7 µM
[7]
  TGI: 35.7 µM
[8]
  TGI: 39.5 µM
[9]
  TGI: 35.8 µM
[10]
  TGI: 35.5 µM
[11]
  TGI: 80.5 µM
[12]
  TGI: 39.7 µM
[13]
  TGI: 83.1 µM
[14]
  TGI: > 100 µM
[15]
  TGI: 36.4 µM
[16]
  TGI: 32 µM
[17]
  TGI: 42.8 µM
[18]
  TGI: 35.2 µM
[19]
  TGI: 41.9 µM
[20]
  TGI: 55.2 µM
[21]
  TGI: 33.8 µM
[22]
  TGI: 43.5 µM
[23]
  TGI: 35.7 µM
[24]
  TGI: 38.8 µM
[25]
  TGI: 48.7 µM
[26]
  TGI: 36.2 µM
[27]
  TGI: 36.3 µM
[28]
  TGI: 48.7 µM
[29]
  TGI: 36 µM
[30]
  TGI: 47.2 µM
[31]
  TGI: 55 µM
[32]
  TGI: 48.8 µM
[33]
  TGI: > 100 µM
[34]
  TGI: 36.7 µM
[35]
  TGI: 62.9 µM
[36]
  TGI: 38.2 µM
[37]
  TGI: 41.7 µM
[38]
  TGI: 33.9 µM
[39]
  TGI: 37.2 µM
[40]
  TGI: 58.3 µM
[41]
  TGI: 41.7 µM
[42]
  TGI: 33.8 µM
[43]
  TGI: 28.7 µM
[44]
  TGI: 35.9 µM
[45]
  TGI: 37.7 µM
[46]
  TGI: 48.5 µM
[47]
  TGI: 41.6 µM
[48]
  TGI: 35.5 µM
[49]
  TGI: 48.3 µM
[50]
  TGI: 84.8 µM
[51]
  TGI: 27.9 µM
[52]
  TGI: 32.5 µM
[53]
  TGI: 29.6 µM
[54]
  TGI: 29.5 µM

## CCOC(O)C(F)(F)F (stereo not drawn)
[4]
  TGI: > 100 µM
[5]
  TGI: > 100 µM
[6]
  TGI: > 100 µM
[7]
  TGI: > 100 µM
[8]
  TGI: > 100 µM
[9]
  TGI: > 100 µM
[11]
  TGI: > 100 µM
[12]
  TGI: > 100 µM
[13]
  TGI: > 100 µM
[14]
  TGI: > 100 µM
[17]
  TGI: > 100 µM
[18]
  TGI: > 100 µM
[20]
  TGI: > 100 µM
[21]
  TGI: > 100 µM
[22]
  TGI: > 100 µM
[25]
  TGI: > 100 µM
[26]
  TGI: > 100 µM
[27]
  TGI: > 100 µM
[28]
  TGI: > 100 µM
[29]
  TGI: > 100 µM
[30]
  TGI: > 100 µM
[31]
  TGI: > 100 µM
[32]
  TGI: > 100 µM
[33]
  TGI: > 100 µM
[34]
  TGI: > 100 µM
[35]
  TGI: > 100 µM
[36]
  TGI: > 100 µM
[37]
  TGI: > 100 µM
[38]
  TGI: > 100 µM
[40]
  TGI: > 100 µM
[41]
  TGI: > 100 µM
[42]
  TGI: > 100 µM
[43]
  TGI: > 100 µM
[44]
  TGI: > 100 µM
[45]
  TGI: > 100 µM
[46]
  TGI: > 100 µM
[47]
  TGI: > 100 µM
[48]
  TGI: > 100 µM
[49]
  TGI: > 100 µM
[50]
  TGI: > 100 µM
[55]
  TGI: > 100 µM
[52]
  TGI: > 100 µM
[53]
  TGI: > 100 µM
[54]
  TGI: > 100 µM
